Laboratory results published in ChEMBL document CHEMBL4406819, “Targeting the subpocket in xanthine oxidase: Design, synthesis, and biological evaluation of 2-[4-alkoxy-3-(1H-tetrazol-1-yl) phenyl]-6-oxo-1,6-dihydropyrimidine-5-carboxylic acid derivatives” (Eur J Med Chem, 2019).
Activity calls are given as the source filed them. The calls are words filed in the database; no cut-off is given here.

Experiments:
Rattus norvegicus [1] = test: Hypouricemic activity in Sprague-Dawley rat model of potassium oxonate-induced acute hyperuricemia assessed as decrease in serum uric acid level at 5 mg/kg, ig administered 1 hr before potassium oxonate challenge and measured after 3 hrs
Rattus norvegicus [2] = test: Hypouricemic activity in Sprague-Dawley rat model of potassium oxonate-induced acute hyperuricemia assessed as decrease in serum uric acid level at 10 mg/kg, ig administered 1 hr before potassium oxonate challenge and measured after 3 hrs

Row | SMILES | Activity (Rattus norvegicus [1]) | Activity (Rattus norvegicus [2])
1 | Cc1nc(-c2ccc(OCC(C)C)c(C#N)c2)sc1C(=O)O | Active | –
2 | Oc1ncnc2[nH]ncc12 | – | Active
